From article PMC12328707, “Potassium binding by carbonyl clusters, halophilic adaptation and catalysis of Haloferax mediterranei D-2-hydroxyacid dehydrogenase” (Communications Biology, 2025)

Target: T1, D2HDH (Haloferax mediterranei, UniProt Q2VEQ7)
T1 construct: gene ddh; homodimer (~66 kDa; 79 kDa by gel filtration); residues 1-308; no tag mentioned
Test: X-ray crystal structure, […] Å
Format: binding
Conditions: formed by turnover in the crystallisation drop; NADP+ bound; modelled in subunit B as 2:1 mixture of 2-ketohexanoic acid and hydroxy acid

T1 sequence (Q2VEQ7 whole entry, the tested form may be a part): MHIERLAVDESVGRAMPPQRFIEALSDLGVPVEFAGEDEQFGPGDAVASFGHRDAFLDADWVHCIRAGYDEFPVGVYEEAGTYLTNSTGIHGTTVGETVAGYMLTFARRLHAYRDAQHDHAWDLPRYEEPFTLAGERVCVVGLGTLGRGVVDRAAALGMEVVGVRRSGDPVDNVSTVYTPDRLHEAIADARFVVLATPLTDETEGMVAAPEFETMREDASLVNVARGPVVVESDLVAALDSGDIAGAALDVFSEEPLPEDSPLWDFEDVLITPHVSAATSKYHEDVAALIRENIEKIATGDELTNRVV

CCCC[C@@H](O)C(=O)O [D-2-hydroxyhexanoic acid]
X-ray crystal structure, 1.57 Å: D-2-hydroxyhexanoic acid (beige carbons) bound to the active site of the D2HDH/NADP^+ complex
